Results on 24 molecules are retold here after patent US20230089073A1 (Carmot Therapeutics, Inc., priority 2021, published 2023).

SMILES strings stand for the structures.

T1 sequence (P43220 24-463): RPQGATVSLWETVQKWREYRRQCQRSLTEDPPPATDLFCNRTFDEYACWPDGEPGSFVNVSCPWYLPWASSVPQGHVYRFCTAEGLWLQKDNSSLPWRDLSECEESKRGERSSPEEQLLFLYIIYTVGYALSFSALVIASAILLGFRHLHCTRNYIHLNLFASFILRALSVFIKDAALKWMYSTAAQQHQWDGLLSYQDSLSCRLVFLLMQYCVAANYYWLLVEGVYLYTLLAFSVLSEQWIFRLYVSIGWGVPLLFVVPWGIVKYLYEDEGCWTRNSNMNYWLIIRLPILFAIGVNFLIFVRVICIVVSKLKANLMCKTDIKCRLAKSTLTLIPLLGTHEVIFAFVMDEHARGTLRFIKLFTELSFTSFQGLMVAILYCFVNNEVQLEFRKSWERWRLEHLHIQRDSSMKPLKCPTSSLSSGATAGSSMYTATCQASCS

This test addresses T1, human GLP-1 receptor (Homo sapiens, UniProt P43220).
T1 construct: expressed in transfected cells
Nature of the test: GLP-1R cAMP Assay. It counts as cell-based. The settings on record: cAMP accumulation in CHO cells stably overexpressing the human GLP-1 receptor; 30 min treatment; HitHunter cAMP kit; read-out: EC50. An outline of the steps:
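CHO cells stably overexpressing human GLP-1R, 10,000 cells/well, treated with compound in 20-point dose response in triplicate for 30 min. cAMP accumulation read by enzyme-complementation luminescence after lysis and overnight incubation; dose-response curves fitted.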
`CCn1cncc1Cn1c(CN2CCC(Cc3ccnc(COc4ccc(Cl)cc4Cl)c3)CC2)nc2ccc(C(=O)O)cc21` [Example 128, 2-((4-((2-((2,4-Dichlorophenoxy)methyl)pyridin-4-yl)methyl)piperidin-1-yl)methyl)-1-((1-ethyl-1H-imidazol-5-yl)methyl)-1H-benzo[d]imidazole-6-carboxylic acid]: the EC50 was < 50 nM.
Take `CCn1cncc1Cn1c(CN2CCC(C(F)(F)c3cccc(COc4ccc(C)cc4Cl)c3)CC2)nc2ccc(C(=O)O)cc21` [Example 132, 2-((4-((3-((2-Chloro-4-methylphenoxy)methyl)phenyl)difluoromethyl)piperidin-1-yl)methyl)-1-((1-ethyl-1H-imidazol-5-yl)methyl)-1H-benzo[d]imidazole-6-carboxylic acid]: the EC50 is < 50 nM.
Take `O=C(O)c1ccc2nc(CN3CCC(Cc4cnc(COc5ncc(C6CC6)cc5Cl)o4)CC3)n(C[C@@H]3CCO3)c2c1` [Example 136, (S)-2-((4-((2-(((3-Chloro-5-cyclopropylpyridin-2-yl)oxy)methyl)oxazol-5-yl)methyl)piperidin-1-yl)methyl)-1-(oxetan-2-ylmethyl)-1H-benzo[d]imidazole-6-carboxylic acid]: the EC50 is < 50 nM.
Take `Cc1ccc(OCc2cccc(CC3CCN(Cc4nc5ccc(C(=O)O)cc5n4C[C@@H]4CCO4)CC3)n2)c(CO)c1` [Example 146, (S)-2-((4-((6-((2-(Hydroxymethyl)-4-methylphenoxy)methyl)pyridin-2-yl)methyl)piperidin-1-yl)methyl)-1-(oxetan-2-ylmethyl)-1H-benzo[d]imidazole-6-carboxylic acid]: the EC50 was < 50 nM.
Then `CCn1cncc1Cn1c(CN2CCC(CO)(Cc3ccnc(COc4ccc(Cl)cc4Cl)c3)CC2)nc2ccc(C(=O)O)cc21` [Example 150, 2-((4-((2-((2,4-Dichlorophenoxy)methyl)pyridin-4-yl)methyl)-4-(hydroxymethyl)piperidin-1-yl)methyl)-1-((1-ethyl-1H-imidazol-5-yl)methyl)-1H-benzo[d]imidazole-6-carboxylic acid], with < 50 nM; and `O=C(O)c1ccc2nc(CN3CCC(Cc4cccc(COc5ccc(C6CC6)cc5Cl)n4)CC3)n(C[C@@H]3CCO3)c2c1` [Example 152, (S)-2-((4-((6-((2-Chloro-4-cyclopropylphenoxy)methyl)pyridin-2-yl)methyl)piperidin-1-yl)methyl)-1-(oxetan-2-ylmethyl)-1H-benzo[d]imidazole-6-carboxylic acid], with < 50 nM; and `O=C(O)c1ccc2nc(CN3CCC(Cc4cnc(COc5cnc(C6CC6)cc5Cl)o4)CC3)n(C[C@@H]3CCO3)c2c1` [Example 154, (S)-2-((4-((2-(((4-Chloro-6-cyclopropylpyridin-3-yl)oxy)methyl)oxazol-5-yl)methyl)piperidin-1-yl)methyl)-1-(oxetan-2-ylmethyl)-1H-benzo[d]imidazole-6-carboxylic acid], with 50 to 500 nM.
The value for `CCn1cncc1Cn1c(CN2CCC(=Cc3ccnc(COc4ccc(Cl)cc4Cl)c3)CC2)nc2ccc(C(=O)O)cc21` [Example 155, 2-((4-((2-((2,4-Dichlorophenoxy)methyl)pyridin-4-yl)methylene)piperidin-1-yl)methyl)-1-((1-ethyl-1H-imidazol-5-yl)methyl)-1H-benzo[d]imidazole-6-carboxylic acid] was < 50 nM; that for `CCn1cncc1Cn1c(CN2CCC(Oc3cccc(COc4ccc(Cl)cc4Cl)c3)CC2)nc2ccc(C(=O)O)cc21` [Example 157, 2-((4-(3-((2,4-Dichlorophenoxy)methyl)phenoxy)piperidin-1-yl)methyl)-1-((1-ethyl-1H-imidazol-5-yl)methyl)-1H-benzo[d]imidazole-6-carboxylic acid] was < 50 nM; that for `CCn1cncc1Cn1c(CN2CCC(C)(Cc3ccnc(COc4ccc(Cl)cc4Cl)c3)CC2)nc2ccc(C(=O)O)cc21` [Example 163, 2-((4-((2-((2,4-Dichlorophenoxy)methyl)pyridin-4-yl)methyl)-4-methylpiperidin-1-yl)methyl)-1-((1-ethyl-1H-imidazol-5-yl)methyl)-1H-benzo[d]imidazole-6-carboxylic acid] was < 50 nM.
Turning to `CCn1cncc1Cn1c(CN2CCC(CF)(Cc3ccnc(COc4ccc(Cl)cc4Cl)c3)CC2)nc2ccc(C(=O)O)cc21` [Example 164, 2-((4-((2-((2,4-Dichlorophenoxy)methyl)pyridin-4-yl)methyl)-4-(fluoromethyl)piperidin-1-yl)methyl)-1-((1-ethyl-1H-imidazol-5-yl)methyl)-1H-benzo[d]imidazole-6-carboxylic acid], the EC50 is < 50 nM.
Then `O=C(O)c1ccc2nc(CN3CCC(Oc4cc(COc5ccc(Cl)cc5Cl)ccn4)CC3)n(C[C@@H]3CCO3)c2c1` [Example 178, (S)-2-((4-((4-((2,4-Dichlorophenoxy)methyl)pyridin-2-yl)oxy)piperidin-1-yl)methyl)-1-(oxetan-2-ylmethyl)-1H-benzo[d]imidazole-6-carboxylic acid], with 50 to 500 nM; and `C[C@H]1CN(C(=O)c2cnc(COc3ccc(Cl)cc3Cl)o2)CCN1Cc1nc2ccc(C(=O)O)cc2n1C[C@@H]1CCO1` [Example 186, 2-(((S)-4-(2-((2,4-Dichlorophenoxy)methyl)oxazole-5-carbonyl)-2-methylpiperazin-1-yl)methyl)-1-(((S)-oxetan-2-yl)methyl)-1H-benzo[d]imidazole-6-carboxylic acid], with < 50 nM; and `CCn1cncc1Cn1c(CN2CCC(C#N)(Cc3ccnc(COc4ccc(Cl)cc4Cl)c3)CC2)nc2ccc(C(=O)O)cc21` [Example 189, 2-((4-Cyano-4-((2-((2,4-dichlorophenoxy)methyl)pyridin-4-yl)methyl)piperidin-1-yl)methyl)-1-((1-ethyl-1H-imidazol-5-yl)methyl)-1H-benzo[d]imidazole-6-carboxylic acid], with < 50 nM.
Consider `O=C(O)c1ccc2nc(CN3CCC(Oc4cccc(COc5ccc(Cl)cc5Cl)n4)CC3)n(C[C@@H]3CCO3)c2c1` [Example 198, (S)-2-((4-((6-((2,4-Dichlorophenoxy)methyl)pyridin-2-yl)oxy)piperidin-1-yl)methyl)-1-(oxetan-2-ylmethyl)-1H-benzo[d]imidazole-6-carboxylic acid], for which the EC50 was < 50 nM.
Regarding `N#Cc1cc(F)ccc1OCc1cccc(OC2CCN(Cc3nc4ccc(C(=O)O)cc4n3C[C@@H]3CCO3)CC2)c1` [Example 206, (S)-2-((4-(3-((2-Cyano-4-fluorophenoxy)methyl)phenoxy)piperidin-1-yl)methyl)-1-(oxetan-2-ylmethyl)-1H-benzo[d]imidazole-6-carboxylic acid], the EC50 was < 50 nM.
For the molecule `O=C(O)c1ccc2nc(CN3CCC(Oc4cccc(COc5ccc(Cl)cc5Cl)c4)CC3)n(Cc3ccno3)c2c1` [Example 208, 2-((4-(3-((2,4-Dichlorophenoxy)methyl)phenoxy)piperidin-1-yl)methyl)-1-(isoxazol-5-ylmethyl)-1H-benzo[d]imidazole-6-carboxylic acid], the EC50 is < 50 nM.
Regarding `O=C(O)c1ccc2nc(CN3CCC(Oc4cccc(COc5ccc(Cl)cc5Cl)c4)CC3)n(Cc3cnco3)c2c1` [Example 216, 2-((4-(3-((2,4-Dichlorophenoxy)methyl)phenoxy)piperidin-1-yl)methyl)-1-(oxazol-5-ylmethyl)-1H-benzo[d]imidazole-6-carboxylic acid], the EC50 was < 50 nM.
For the molecule `O=C(O)c1ccc2nc(CN3CCC(Oc4ccnc(COc5ccc(F)cc5Cl)c4)CC3)n(C[C@@H]3CCO3)c2c1` [Example 220, (S)-2-((4-((2-((2-Chloro-4-fluorophenoxy)methyl)pyridin-4-yl)oxy)piperidin-1-yl)methyl)-1-(oxetan-2-ylmethyl)-1H-benzo[d]imidazole-6-carboxylic acid], the EC50 is < 50 nM.
Turning to `CCn1cncc1Cn1c(CN2CCC(Oc3ccnc(COc4ccc(Cl)cc4F)c3)CC2)nc2ccc(C(=O)O)cc21` [Example 230, 2-((4-((2-((4-Chloro-2-fluorophenoxy)methyl)pyridin-4-yl)oxy)piperidin-1-yl)methyl)-1-((1-ethyl-1H-imidazol-5-yl)methyl)-1H-benzo[d]imidazole-6-carboxylic acid], the half-maximal effective concentration (EC50) is < 50 nM.
Then `CCn1cncc1Cn1c(CN2CCC(Oc3ccnc(COc4ccc(C#N)cc4F)n3)CC2)nc2ccc(C(=O)O)cc21` [Example 261, 2-((4-((2-((4-Cyano-2-fluorophenoxy)methyl)pyrimidin-4-yl)oxy)piperidin-1-yl)methyl)-1-((1-ethyl-1H-imidazol-5-yl)methyl)-1H-benzo[d]imidazole-6-carboxylic acid], with < 50 nM.
As for `N#Cc1ccc(OCc2nccc(OC3CCN(Cc4nc5ccc(C(=O)O)cc5n4C[C@@H]4CCO4)CC3)n2)c(F)c1` [Example 262, (S)-2-((4-((2-((4-Cyano-2-fluorophenoxy)methyl)pyrimidin-4-yl)oxy)piperidin-1-yl)methyl)-1-(oxetan-2-ylmethyl)-1H-benzo[d]imidazole-6-carboxylic acid], the EC50 is < 50 nM.
The value for `CCn1cncc1Cn1c(CN2CCC(Oc3cccnc3COc3ccc(Cl)cc3Cl)CC2)nc2ccc(C(=O)O)cc21` [Example 271, 2-((4-((2-((2,4-Dichlorophenoxy)methyl)pyridin-3-yl)oxy)piperidin-1-yl)methyl)-1-((1-ethyl-1H-imidazol-5-yl)methyl)-1H-benzo[d]imidazole-6-carboxylic acid] was 50 to 500 nM; that for `CCn1cncc1Cn1c(CN2CC[C@H](Oc3ccnc(COc4ccc(Cl)cc4Cl)c3)C[C@@H]2C)nc2ccc(C(=O)O)cc21` [Example 274, 2-(((2S,4S)-4-((2-((2,4-Dichlorophenoxy)methyl)pyridin-4-yl)oxy)-2-methylpiperidin-1-yl)methyl)-1-((1-ethyl-1H-imidazol-5-yl)methyl)-1H-benzo[d]imidazole-6-carboxylic acid] was < 50 nM.
